From BigSolDB 2.1

CC(=O)C1=C(O)C=C2Oc3c(C(C)=O)c(O)c(C)c(O)c3C2(C)C1=O (stereo in doubt)
solubility (mole fraction)
Settings | in acetone | in ethanol | in ethyl acetate | in n-hexane | in water
278.15 K | 0.000422 | – | – | – | –
283.15 K | 0.000454 | – | – | – | –
288.15 K | 0.000541 | 3.09e-05 | 0.00109 | 5.97e-05 | 2.81e-07
293.15 K | 0.00061 | 4.23e-05 | 0.00125 | 6.97e-05 | 2.99e-07
298.15 K | 0.000747 | 5.3e-05 | 0.00158 | 8.06e-05 | 3.31e-07
303.15 K | 0.000879 | 6.8e-05 | 0.00189 | 9.43e-05 | 3.52e-07
308.15 K | 0.000978 | 9.3e-05 | 0.00216 | 0.000106 | 3.75e-07
313.15 K | 0.00121 | 0.000114 | 0.00275 | 0.000128 | 4.06e-07
318.15 K | 0.00165 | 0.000121 | 0.00314 | 0.000149 | 4.46e-07
323.15 K | 0.00197 | 0.000148 | 0.0038 | 0.000176 | 4.77e-07
328.15 K | – | 0.000203 | 0.00444 | 0.000224 | 5.3e-07
333.15 K | – | 0.000234 | 0.00518 | 0.000256 | 5.94e-07
338.15 K | – | 0.000274 | 0.00689 | 0.00029 | 6.61e-07
